Data as given in ChEMBL document CHEMBL5303573, “Mapping human microbiome drug metabolism by gut bacteria and their genes” (Nature, 2019).

Test: The drug is tested on Alistipes indistinctus strain: DSM22520 for biotransformation. The drug concentrations were measured before and after a 12-h incubation by liquid-chromatography-coupled mass spectrometry (LC–MS)
Conditions: 2 µM

Row | Structure (SMILES) | Bacterial Biotransformation
1 | CN1CCN(CC/C=C2/c3ccccc3Sc3ccc(S(=O)(=O)N(C)C)cc32)CC1 [THIOTHIXENE] | Compound NOT metabolized
2 | CNCCC(Oc1ccc(C(F)(F)F)cc1)c1ccccc1 (stereo not given) [FLUOXETINE] | Compound metabolized
3 | COc1ccnc(C[S+]([O-])c2nc3ccc(OC(F)F)cc3[nH]2)c1OC (stereo not given) [PANTOPRAZOLE] | Compound metabolized

Test: The drug is tested on Bacteroides coprophilus strain: DSM18228 for biotransformation. The drug concentrations were measured before and after a 12-h incubation by liquid-chromatography-coupled mass spectrometry (LC–MS)
Conditions: 2 µM

Row | Structure (SMILES) | Bacterial Biotransformation
4 | CN1CCN(CC/C=C2/c3ccccc3Sc3ccc(S(=O)(=O)N(C)C)cc32)CC1 [THIOTHIXENE] | Compound NOT metabolized
5 | CNCCC(Oc1ccc(C(F)(F)F)cc1)c1ccccc1 (stereo not given) [FLUOXETINE] | Compound metabolized
6 | COc1ccnc(C[S+]([O-])c2nc3ccc(OC(F)F)cc3[nH]2)c1OC (stereo not given) [PANTOPRAZOLE] | Compound metabolized

Test: The drug is tested on Bacteroides dorei strain: DSM17855 for biotransformation. The drug concentrations were measured before and after a 12-h incubation by liquid-chromatography-coupled mass spectrometry (LC–MS)
Conditions: phocaeicola dorei, 2 µM

Row | Structure (SMILES) | Bacterial Biotransformation
7 | CN1CCN(CC/C=C2/c3ccccc3Sc3ccc(S(=O)(=O)N(C)C)cc32)CC1 [THIOTHIXENE] | Compound metabolized
8 | CNCCC(Oc1ccc(C(F)(F)F)cc1)c1ccccc1 (stereo not given) [FLUOXETINE] | Compound metabolized
9 | COc1ccnc(C[S+]([O-])c2nc3ccc(OC(F)F)cc3[nH]2)c1OC (stereo not given) [PANTOPRAZOLE] | Compound metabolized

Test: The drug is tested on Bacteroides ovatus strain: ATCC8483 for biotransformation. The drug concentrations were measured before and after a 12-h incubation by liquid-chromatography-coupled mass spectrometry (LC–MS)
Conditions: 2 µM

Row | Structure (SMILES) | Bacterial Biotransformation
10 | CN1CCN(CC/C=C2/c3ccccc3Sc3ccc(S(=O)(=O)N(C)C)cc32)CC1 [THIOTHIXENE] | Compound NOT metabolized
11 | CNCCC(Oc1ccc(C(F)(F)F)cc1)c1ccccc1 (stereo not given) [FLUOXETINE] | Compound metabolized
12 | COc1ccnc(C[S+]([O-])c2nc3ccc(OC(F)F)cc3[nH]2)c1OC (stereo not given) [PANTOPRAZOLE] | Compound metabolized

Test: The drug is tested on Bacteroides pectinophilus strain: ATCC43243 for biotransformation. The drug concentrations were measured before and after a 12-h incubation by liquid-chromatography-coupled mass spectrometry (LC–MS)
Conditions: 2 µM

Row | Structure (SMILES) | Bacterial Biotransformation
13 | CN1CCN(CC/C=C2/c3ccccc3Sc3ccc(S(=O)(=O)N(C)C)cc32)CC1 [THIOTHIXENE] | Compound NOT metabolized
14 | CNCCC(Oc1ccc(C(F)(F)F)cc1)c1ccccc1 (stereo not given) [FLUOXETINE] | Compound metabolized
15 | COc1ccnc(C[S+]([O-])c2nc3ccc(OC(F)F)cc3[nH]2)c1OC (stereo not given) [PANTOPRAZOLE] | Compound metabolized

Test: The drug is tested on Bacteroides uniformis strain: ATCC8492 for biotransformation. The drug concentrations were measured before and after a 12-h incubation by liquid-chromatography-coupled mass spectrometry (LC–MS)
Conditions: 2 µM

Row | Structure (SMILES) | Bacterial Biotransformation
16 | CN1CCN(CC/C=C2/c3ccccc3Sc3ccc(S(=O)(=O)N(C)C)cc32)CC1 [THIOTHIXENE] | Compound metabolized
17 | CNCCC(Oc1ccc(C(F)(F)F)cc1)c1ccccc1 (stereo not given) [FLUOXETINE] | Compound metabolized
18 | COc1ccnc(C[S+]([O-])c2nc3ccc(OC(F)F)cc3[nH]2)c1OC (stereo not given) [PANTOPRAZOLE] | Compound metabolized

Test: The drug is tested on Parabacteroides merdae strain: ATCC43184 for biotransformation. The drug concentrations were measured before and after a 12-h incubation by liquid-chromatography-coupled mass spectrometry (LC–MS)
Conditions: 2 µM

Row | Structure (SMILES) | Bacterial Biotransformation
19 | CN1CCN(CC/C=C2/c3ccccc3Sc3ccc(S(=O)(=O)N(C)C)cc32)CC1 [THIOTHIXENE] | Compound NOT metabolized
20 | CNCCC(Oc1ccc(C(F)(F)F)cc1)c1ccccc1 (stereo not given) [FLUOXETINE] | Compound metabolized
21 | COc1ccnc(C[S+]([O-])c2nc3ccc(OC(F)F)cc3[nH]2)c1OC (stereo not given) [PANTOPRAZOLE] | Compound metabolized

Test: The drug is tested on Anaerococcus hydrogenalis strain: DSM7454 for biotransformation. The drug concentrations were measured before and after a 12-h incubation by liquid-chromatography-coupled mass spectrometry (LC–MS)
Conditions: 2 µM

Row | Structure (SMILES) | Bacterial Biotransformation
22 | CN1CCN(CC/C=C2/c3ccccc3Sc3ccc(S(=O)(=O)N(C)C)cc32)CC1 [THIOTHIXENE] | Compound metabolized
23 | CNCCC(Oc1ccc(C(F)(F)F)cc1)c1ccccc1 (stereo not given) [FLUOXETINE] | Compound NOT metabolized
24 | COc1ccnc(C[S+]([O-])c2nc3ccc(OC(F)F)cc3[nH]2)c1OC (stereo not given) [PANTOPRAZOLE] | Compound metabolized

Test: The drug is tested on Anaerotruncus colihominis strain: DSM17241 for biotransformation. The drug concentrations were measured before and after a 12-h incubation by liquid-chromatography-coupled mass spectrometry (LC–MS)
Conditions: 2 µM

Row | Structure (SMILES) | Bacterial Biotransformation
25 | CN1CCN(CC/C=C2/c3ccccc3Sc3ccc(S(=O)(=O)N(C)C)cc32)CC1 [THIOTHIXENE] | Compound NOT metabolized
26 | CNCCC(Oc1ccc(C(F)(F)F)cc1)c1ccccc1 (stereo not given) [FLUOXETINE] | Compound NOT metabolized
27 | COc1ccnc(C[S+]([O-])c2nc3ccc(OC(F)F)cc3[nH]2)c1OC (stereo not given) [PANTOPRAZOLE] | Compound metabolized

Test: The drug is tested on Clostridium ramosum strain: DSM1402 for biotransformation. The drug concentrations were measured before and after a 12-h incubation by liquid-chromatography-coupled mass spectrometry (LC–MS)
Conditions: thomasclavelia ramosa, 2 µM

Row | Structure (SMILES) | Bacterial Biotransformation
28 | CN1CCN(CC/C=C2/c3ccccc3Sc3ccc(S(=O)(=O)N(C)C)cc32)CC1 [THIOTHIXENE] | Compound metabolized
29 | CNCCC(Oc1ccc(C(F)(F)F)cc1)c1ccccc1 (stereo not given) [FLUOXETINE] | Compound metabolized
30 | COc1ccnc(C[S+]([O-])c2nc3ccc(OC(F)F)cc3[nH]2)c1OC (stereo not given) [PANTOPRAZOLE] | Compound metabolized

Test: The drug is tested on Enterococcus faecalis strain: V583 for biotransformation. The drug concentrations were measured before and after a 12-h incubation by liquid-chromatography-coupled mass spectrometry (LC–MS)
Conditions: 2 µM

Row | Structure (SMILES) | Bacterial Biotransformation
31 | CN1CCN(CC/C=C2/c3ccccc3Sc3ccc(S(=O)(=O)N(C)C)cc32)CC1 [THIOTHIXENE] | Compound NOT metabolized
32 | CNCCC(Oc1ccc(C(F)(F)F)cc1)c1ccccc1 (stereo not given) [FLUOXETINE] | Compound metabolized
33 | COc1ccnc(C[S+]([O-])c2nc3ccc(OC(F)F)cc3[nH]2)c1OC (stereo not given) [PANTOPRAZOLE] | Compound metabolized

Test: The drug is tested on Eubacterium rectale strain: ATCC33656 for biotransformation. The drug concentrations were measured before and after a 12-h incubation by liquid-chromatography-coupled mass spectrometry (LC–MS)
Conditions: agathobacter rectalis, 2 µM

Row | Structure (SMILES) | Bacterial Biotransformation
34 | CN1CCN(CC/C=C2/c3ccccc3Sc3ccc(S(=O)(=O)N(C)C)cc32)CC1 [THIOTHIXENE] | Compound NOT metabolized
35 | CNCCC(Oc1ccc(C(F)(F)F)cc1)c1ccccc1 (stereo not given) [FLUOXETINE] | Compound metabolized
36 | COc1ccnc(C[S+]([O-])c2nc3ccc(OC(F)F)cc3[nH]2)c1OC (stereo not given) [PANTOPRAZOLE] | Compound metabolized

Test: The drug is tested on Ruminococcus gnavus strain: ATCC29149 for biotransformation. The drug concentrations were measured before and after a 12-h incubation by liquid-chromatography-coupled mass spectrometry (LC–MS)
Conditions: mediterraneibacter gnavus, 2 µM

Row | Structure (SMILES) | Bacterial Biotransformation
37 | CN1CCN(CC/C=C2/c3ccccc3Sc3ccc(S(=O)(=O)N(C)C)cc32)CC1 [THIOTHIXENE] | Compound NOT metabolized
38 | CNCCC(Oc1ccc(C(F)(F)F)cc1)c1ccccc1 (stereo not given) [FLUOXETINE] | Compound metabolized
39 | COc1ccnc(C[S+]([O-])c2nc3ccc(OC(F)F)cc3[nH]2)c1OC (stereo not given) [PANTOPRAZOLE] | Compound metabolized

Test: The drug is tested on Ruminococcus torques strain: ATCC27756 for biotransformation. The drug concentrations were measured before and after a 12-h incubation by liquid-chromatography-coupled mass spectrometry (LC–MS)
Assay type: ADME
Set-up: dose 2 uM, timepoint 0 vs 12 hours
Conditions: 2 µM

Row | Structure (SMILES) | Bacterial Biotransformation
40 | CN1CCN(CC/C=C2/c3ccccc3Sc3ccc(S(=O)(=O)N(C)C)cc32)CC1 [THIOTHIXENE] | Compound NOT metabolized
41 | CNCCC(Oc1ccc(C(F)(F)F)cc1)c1ccccc1 (stereo not given) [FLUOXETINE] | Compound NOT metabolized
42 | COc1ccnc(C[S+]([O-])c2nc3ccc(OC(F)F)cc3[nH]2)c1OC (stereo not given) [PANTOPRAZOLE] | Compound metabolized

Test: The drug is tested on Edwardsiella tarda strain: ATCC23685 for biotransformation. The drug concentrations were measured before and after a 12-h incubation by liquid-chromatography-coupled mass spectrometry (LC–MS)
Conditions: 2 µM

Row | Structure (SMILES) | Bacterial Biotransformation
43 | CN1CCN(CC/C=C2/c3ccccc3Sc3ccc(S(=O)(=O)N(C)C)cc32)CC1 [THIOTHIXENE] | Compound metabolized
44 | CNCCC(Oc1ccc(C(F)(F)F)cc1)c1ccccc1 (stereo not given) [FLUOXETINE] | Compound NOT metabolized
45 | COc1ccnc(C[S+]([O-])c2nc3ccc(OC(F)F)cc3[nH]2)c1OC (stereo not given) [PANTOPRAZOLE] | Compound metabolized

Test: The drug is tested on Providencia stuartii strain: ATCC25827 for biotransformation. The drug concentrations were measured before and after a 12-h incubation by liquid-chromatography-coupled mass spectrometry (LC–MS)
Conditions: 2 µM

Row | Structure (SMILES) | Bacterial Biotransformation
46 | CN1CCN(CC/C=C2/c3ccccc3Sc3ccc(S(=O)(=O)N(C)C)cc32)CC1 [THIOTHIXENE] | Compound metabolized
47 | CNCCC(Oc1ccc(C(F)(F)F)cc1)c1ccccc1 (stereo not given) [FLUOXETINE] | Compound metabolized
48 | COc1ccnc(C[S+]([O-])c2nc3ccc(OC(F)F)cc3[nH]2)c1OC (stereo not given) [PANTOPRAZOLE] | Compound metabolized

Conditions: bifidobacterium adolescentis, 12 h, 2 µM
Description: The drug is tested on Bifidobacterium adolescentis strain: ATCC 15703 for biotransformation. The drug concentrations were measured before and after a 12-h incubation by liquid-chromatography-coupled mass spectrometry (LC–MS)

Row | Structure (SMILES) | Bacterial Biotransformation
49 | CN1CCN(CC/C=C2/c3ccccc3Sc3ccc(S(=O)(=O)N(C)C)cc32)CC1 [THIOTHIXENE] | Compound NOT metabolized
50 | CNCCC(Oc1ccc(C(F)(F)F)cc1)c1ccccc1 (stereo not given) [FLUOXETINE] | Compound metabolized
51 | COc1ccnc(C[S+]([O-])c2nc3ccc(OC(F)F)cc3[nH]2)c1OC (stereo not given) [PANTOPRAZOLE] | Compound metabolized

Conditions: bacteroides fragilis, 12 h, 2 µM
Description: The drug is tested on Bacteroides fragilis strain: NCTC 9343 for biotransformation. The drug concentrations were measured before and after a 12-h incubation by liquid-chromatography-coupled mass spectrometry (LC–MS)

Row | Structure (SMILES) | Bacterial Biotransformation
52 | CN1CCN(CC/C=C2/c3ccccc3Sc3ccc(S(=O)(=O)N(C)C)cc32)CC1 [THIOTHIXENE] | Compound metabolized
53 | CNCCC(Oc1ccc(C(F)(F)F)cc1)c1ccccc1 (stereo not given) [FLUOXETINE] | Compound metabolized
54 | COc1ccnc(C[S+]([O-])c2nc3ccc(OC(F)F)cc3[nH]2)c1OC (stereo not given) [PANTOPRAZOLE] | Compound metabolized

Conditions: parabacteroides johnsonii, 12 h, 2 µM
Description: The drug is tested on Parabacteroides johnsonii strain: DSM18315 for biotransformation. The drug concentrations were measured before and after a 12-h incubation by liquid-chromatography-coupled mass spectrometry (LC–MS)

Row | Structure (SMILES) | Bacterial Biotransformation
55 | CN1CCN(CC/C=C2/c3ccccc3Sc3ccc(S(=O)(=O)N(C)C)cc32)CC1 [THIOTHIXENE] | Compound metabolized
56 | CNCCC(Oc1ccc(C(F)(F)F)cc1)c1ccccc1 (stereo not given) [FLUOXETINE] | Compound metabolized
57 | COc1ccnc(C[S+]([O-])c2nc3ccc(OC(F)F)cc3[nH]2)c1OC (stereo not given) [PANTOPRAZOLE] | Compound metabolized

Conditions: limosilactobacillus reuteri cf48-3a, 12 h, 2 µM
Description: The drug is tested on Lactobacillus reuteri CF48-3A strain: BEI HM-102 for biotransformation. The drug concentrations were measured before and after a 12-h incubation by liquid-chromatography-coupled mass spectrometry (LC–MS)

Row | Structure (SMILES) | Bacterial Biotransformation
58 | CN1CCN(CC/C=C2/c3ccccc3Sc3ccc(S(=O)(=O)N(C)C)cc32)CC1 [THIOTHIXENE] | Compound metabolized
59 | CNCCC(Oc1ccc(C(F)(F)F)cc1)c1ccccc1 (stereo not given) [FLUOXETINE] | Compound metabolized
60 | COc1ccnc(C[S+]([O-])c2nc3ccc(OC(F)F)cc3[nH]2)c1OC (stereo not given) [PANTOPRAZOLE] | Compound metabolized
